Data on one compound can be found in patent publication EP4574147A1, “COMPOSITION FOR PREVENTING, AMELIORATING, OR TREATING CANCER COMPRISING STEPPOGENIN AS ACTIVE INGREDIENT” (Kyungpook National University Industry-Academic Cooperation …, priority 2022, dated 2024).

The data set relates to Lewis lung carcinoma (LLC)-allografted tumor models. Description: Lewis lung carcinoma allograft tumor model with immunohistochemical analysis. Type of data set: in vivo, C57BL/6J mice. The conditions noted are these: 17-AAG 25 mg/kg, steppogenin 2 mg/kg, intraperitoneal (FIG. 6b). On the procedure:
Six-week-old adult male C57BL/6J mice (SLC, Japan) were used and housed in a specific pathogen-free facility with an individual ventilation system at Kyungpook National University.
To manufacture Lewis lung carcinoma (LLC)-allografted tumor models, LLC cell suspensions (5 × 10^5 cells in 200 µL of serum-free culture medium) were subcutaneously transplanted into the dorsal flank area of 6-week-old male C57BL/6J mice. After inoculating the LLC cells, the mice were administered 17-AAG (25 mg/kg) or steppogenin (2 mg/kg) via intraperitoneal injection at various time points. Next, tumor volumes were measured according to the following formula: V = 0.5 × A × B^2, where A and B represent the longest and shortest dimensions, respectively. Finally, the mice were anesthetized and tissues were collected for further analysis.
For immunohistochemical analysis, collected tumor or tissue samples were fixed in 4% paraformaldehyde and embedded in tissue-freezing medium (Leica, Wetzlar, Germany). Frozen blocks were cut into 10 µm sample sections, blocked with 3% BSA in PBST (0.3% Triton X-100 in PBS), and incubated overnight at 4 °C with appropriate primary antibodies. Primary antibodies were as follows: anti-CD34 (Boster Bio, CA, USA), anti-DLL4 (R&D Systems, MN, USA), anti-pimonidazole (Hypoxyprobe-1, HPI, MA, USA), anti-CD3 (Abcam), anti-CD4 (Invitrogen), and anti-CD8 (Invitrogen). After several washes, the samples were incubated with recommended fluorophore-tagged secondary antibodies for 1 hour at room temperature. Next, cell nuclei were stained using Antifade Mounting Medium containing DAPI (Vector Laboratories, Burlingame, CA). Immunofluorescence images were acquired using a Zeiss confocal microscope (Carl Zeiss, Germany). Next, pimonidazole hydrochloride (60 mg/kg; Hypoxyprobe-1, HPI) was injected intravenously through the tail vein of mice and anesthetized 90 minutes later. Finally, tumor tissues were collected for further analysis.
To determine whether steppogenin induces vascular normalization, T-cell infiltration in tumor tissues was examined.

`C=CCNC1=C2C[C@@H](C)C[C@H](OC)[C@H](O)[C@@H](C)/C=C(\C)[C@H](OC(N)=O)[C@@H](OC)/C=C\C=C(/C)C(=O)NC(=CC1=O)C2=O` [Compound 17-AAG, tanespimycin, reference compound]: the “average body weights between the groups during the administration period” value is recorded as “no significant difference”.
